US5202456A, “Compounds for inhibition of protein methylation” (The President and Fellows of Harvard College, priority 1991, dated 1993)
“Also recorded” adds a separate entry of the source. Where two headings read alike, the source gives them in different places. Values belong to the compound of their own block, whether it stands above or below them.

Legend:
[1] = target: T1, ROS methyltransferase (bovine retinal rod outer segment S-adenosyl-L-methionine-dependent methyltransferase) (Bos taurus, UniProt A0AAA9SD88); assay: ROS methyltransferase assay: compounds as substrates (Km) or inhibitors (Ki) of AFC methylation; assay type: biochemical; settings: for substrate activity for ROS methyltransferase / inhibition of methyltransferase activity towards AFC / competitive inhibition of AFC methylation: in words
T1 construct: utilizing ROS membranes as the source of methyltransferase enzyme; tissue Wanda Lawson Co., Lincoln, Nebr; (frozen bovine retinas); host or cells: bovine retinal rod outer segment (ROS) membranes
T1 sequence (A0AAA9SD88 1-284): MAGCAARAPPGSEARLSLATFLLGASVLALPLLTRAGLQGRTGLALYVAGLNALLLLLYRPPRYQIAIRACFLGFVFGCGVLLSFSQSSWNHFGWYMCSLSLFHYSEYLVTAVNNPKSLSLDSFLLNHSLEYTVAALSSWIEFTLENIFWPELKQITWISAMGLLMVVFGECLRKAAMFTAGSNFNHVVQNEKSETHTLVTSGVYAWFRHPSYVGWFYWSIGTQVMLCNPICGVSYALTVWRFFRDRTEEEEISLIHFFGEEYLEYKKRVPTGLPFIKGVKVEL
Method: Standard assays may be used to determine Km for substrates and Ki for inhibitors. […] The values of Ki and Km are calculated from kinetic assays by conventional means (Fersht, Enzyme Structure and Mechanism, W. H. Freeman and Co., New York, 1984). Examples are provided below to illustrate suitable assays, and are not intended to limit the invention.
One suitable assay of methylation functions uses bovine retinal rod outer segment (ROS) methyltransferase and a natural substrate, transducin. […] Another suitable assay uses N-acetyl-S-farnesylcysteine as a substrate for ROS methyltransferase.
The bovine retinal transducin γ subunit has a carboxyl-terminal --CAAX motif and undergoes a farnesylation reaction similar to that observed on ras (Lai et al., Proc. Natl. Acad. Sci. USA 87:7673, 1990; Fukada et al., Nature 346:658, 1990).
(§1) Frozen bovine retinas (Wanda Lawson Co., Lincoln, Nebr.) were used to prepare ROS membranes depleted of peripheral proteins using a modification of the procedure of Wessling-Resnick et al. (J. Biol. Chem. 262:3697, 1987). Briefly, ROS membranes were washed with low ionic strength buffer and 100μM GTP, resuspended in 50 mM Hepes-Na (pH 7.4), 100 mM NaCl, 5 mM MgCl2, 0.1 mM phenylmethylsulfonyl fluoride, 0.1 mM dithiothreitol (buffer A) and stored in small aliquots at -80° C. until used. Transducin was isolated by disrupting ROS membranes by passing the membranes through a narrow needle and washing the disrupted membranes in a series of centrifugation steps as described by Wessling-Resnick et al. (J. Biol. Chem. 262:3697, 1987). Finally transducin was eluted from the membranes with 100μM GTP. The transducin-enriched supernatant was concentrated using Centriprep (Amicon).
(§2) For initial studies, the reaction mixture contained 20 μCi of S-adenosyl-[methyl-^3 H] methionine ([^3 H]SAM) (2.34 μM, Amersham) and an aliquot of ROS (120μg of total protein) or of washed ROS membranes (80μg of total protein) in 100 μl of buffer A. Purified transducin was added to this mixture to a concentration of 5 μM. AFC, N-acetylcysteine, or AFC methylester was added in 2 μl of dimethyl sulfoxide to give a final concentration of 20 μM, and the reaction was carried out at 37° C.
The above-described methyltransferase assay was used to analyze the analogs described above.

[2] = target: T2, methyltransferase activity present in ROS membrane (Bos taurus, UniProt A0AAA9SD88); assay: In vitro [3H]SAM methylation of proteins by ROS membrane methyltransferase; assay type: biochemical, bovine; settings: in words
T2 construct: substrates transducin gamma, 23-29 kDa small G proteins, AFC
T2 sequence (A0AAA9SD88 1-284): as above
Method: as §1, §2
Incubation of bovine ROS with [^3 H]SAM results in the radioactive labeling of polypeptides with apparent molecular masses of 88, 60, 23-29, and 6 kDa. The methylation of the 88-kDa protein (α subunit of retinal phosphodiesterase) and of the 23- to 29-kDa polypeptides has already been reported (Swanson et al., J. Biol. Chem. 258:10599, 1983; Ota et al., J. Biol. Chem. 264:12879, 1989). The 6-kDa polypeptide coincides with Tγ in SDS/polyacrylamide gels. Moreover, incubation of purified transducin with extensively washed ROS and [^3 H]SAM results in the labeling of the 6-kDa polypeptide and the membrane-associated 23- to 29-kDa proteins. […]

[3] = system: HL-60 cells; assay: Inhibition of HL-60 cell proliferation (trypan blue dye exclusion count); assay type: cell-based; settings: FIG. 2; in words
Method: FTA, FTP, AFHC and AFC were tested for their ability to inhibit cell growth as follows.
HL-60 cells (ATCC CCL 240, American Type Culture Collection, Rockville, Md.) which harbor an activated ras gene were grown in RPMI medium (Gibco/BRL, Bethesda, Md.) supplemented with 10-15% fetal calf serum, L-glutamine, penicillin and streptomycin. These cells were treated with various concentrations of FTA, FTP, AFHC, or AFC dissolved in dimethyl sulfoxide (DMSO) or with DMSO only (In all experiments the final DMSO concentration was 1% or less). Treated ans untreated cells were incubated under standard culture conditions for several days. Cells were counted manually at 24 hour intervals using a trypan blue dye exclusion assay which counts only live, intact cells.

[4] = system: methyltransferase activity in HL-60 cells; assay: Methylation of AFC by activity present in HL-60 cell membrane; assay type: biochemical; settings: in words
[5] = system: cell growth; settings: Maltese et al., 1985; cited from earlier work
[6] = system: ras proteins; settings: Hancock et al., 1989; cited from earlier work
[7] = system: cellular synthesis of mevalonic acid; settings: in words; cited from earlier work
[8] = ROS membranes as source of enzyme, read-out: KM for methylation
[9] = Table 1, substrates, read-out: Km
[10] = Table 1, conventional inhibitors, read-out: Ki
[11] = calculated, read-out: Ki for inhibition of AFC methylation

Compound: CC(=O)N[C@@H](CSC/C=C(\C)CC/C=C(\C)CCC=C(C)C)C(=O)O [AFC, N-acetyl-S-farnesylcysteine]
Km [1, 8]: 23 µM | Km [1, 9]: 23 µM | substrate activity for ROS methyltransferase [1]: acts as a substrate; also recorded: serves as a substrate; also recorded: can serve as a substrate | incorporation of label by [3H]SAM into proteins ([2]; ROS): reduced incorporation of label | inhibition of proliferation of HL-60 cells [3]: can inhibit proliferation | methylation by activity in membrane of HL-60 cells [4]: can be methylated

Compound: CC(=O)N[C@@H](CSCCC(C)CCCC(C)CCCC(C)C)C(=O)O (stereo partly drawn) [ATC, N-acetyl-S-(3,7,11-trimethyldodecanyl)-L-cysteine]
substrate activity for ROS methyltransferase [1]: inactive as a substrate; also recorded: lack of activity

Compound: CC(C)=CCC/C(C)=C/CC/C(C)=C/CSCCC#N [3-farnesylthiopropionitrile]
status as conventional inhibitor (in place of Ki) ([1]; Table 1): inhibitor

Compound: CC(C)=CCC/C(C)=C/CC/C(C)=C/CSCC(N)C(=O)O (stereo not drawn) [S-farnesylcysteine]
status as conventional inhibitor (in place of Ki) ([1]; Table 1): inhibitor

Compound: C=C(CSC/C=C(\C)CC/C=C(\C)CCC=C(C)C)C(=O)O [3-farnesylthio-2-methylenepropionic acid]
status as substrate (in place of Km) ([1]; Table 1): substrate

Compound: CC(C)=CCC/C(C)=C/CC/C(C)=C/CSC(C)CC(=O)O (stereo not drawn) [3-farnesylthiobutyric acid]
Ki [1, 10]: 30 to 40 µM

Compound: CC(=O)N[C@@H](C[S+]([O-])C/C=C(\C)CC/C=C(\C)CCC=C(C)C)C(=O)O (stereo partly drawn) [AFCS, N-acetyl-S-oxo-farnesylcysteine]
Ki [1, 10]: 13.2 µM | Ki [1, 11]: 11.6 µM | methylation of AFCS ([1]; even at 500 μM): not methylated | competitive inhibition of AFC methylation [1]: potent competitive inhibitors | substrate activity for ROS methyltransferase [1]: lack of activity; also recorded: not substrates

Compound: CC(C)=CCC/C(C)=C/CC/C(C)=C/CSCC(C)C(=O)O (stereo not drawn) [2-methyl-3-farnesylthiopropionic acid]
Km [1, 9]: 21 µM

Compound: CC(=O)N[C@@H](CCSC/C=C(\C)CC/C=C(\C)CCC=C(C)C)C(=O)O [AFHC, N-acetyl-S-farnesylhomocysteine]
Ki [1, 10]: 36.3 µM | Ki [1, 11]: 30.2 µM | competitive inhibition of AFC methylation [1]: potent competitive inhibitors | substrate activity for ROS methyltransferase [1]: not a substrate; also recorded: not substrates | inhibition of proliferation of HL-60 cells [3]: can inhibit proliferation

Compound: CC[C@H](C)C(=O)O[C@H]1C[C@@H](C)C=C2C=C[C@H](C)[C@H](CC[C@@H]3C[C@@H](O)CC(=O)O3)[C@H]21 [Mevinolin]
cell growth block [5]: blocked in cell growth in the G1 phase and the G2/M phase | post-translational processing of ras proteins [6]: affects | ras membrane localization [6]: interferes | cellular synthesis of mevalonic acid [7]: inhibits

Compound: CC(C)=CCC/C(C)=C/CC/C(C)=C/CSCC[N+](=O)[O-] [2-farnesylthio-1-nitroethane]
status as conventional inhibitor (in place of Ki) ([1]; Table 1): inhibitor

Compound: CC(C)=CCC/C(C)=C/CC/C(C)=C/COCCC(=O)O [3-farnesyloxypropionic acid]
Km [1, 9]: 26 µM

Compound: 3-farnesylthiocyclohexanecarboxylic acid
status as conventional inhibitor (in place of Ki) ([1]; Table 1): inhibitor

Compound: CCCCCCC(CC(=O)O)SC/C=C(\C)CC/C=C(\C)CCC=C(C)C (stereo not drawn) [3-farnesylthiononanoic acid]
status as conventional inhibitor (in place of Ki) ([1]; Table 1): inhibitor

Compound: CC(=O)NC(C[Se]C/C=C(\C)CC/C=C(\C)CCC=C(C)C)C(=O)O (racemic) [N-acetyl-Se-farnesyl-D,L-cysteine]
Km ([1]; Table 1, substrates): 51 µM

Compound: CSC(CSC/C=C(\C)CC/C=C(\C)CCC=C(C)C)=NO [2-farnesylthio-S-methyl]
status as conventional inhibitor (in place of Ki) ([1]; Table 1): inhibitor

Compound: CC(C)=CCC/C(C)=C/CC/C(C)=C/C[Se]CCC(=O)O
Ki [1]: 29 µM

Compound: CC(C)=CCC/C(C)=C/CC/C(C)=C/CS/C=C\C(=O)O [3-farnesylthio-cis-acrylic acid]
Ki [1, 10]: 40 µM

Compound: CC(C)=CCC/C(C)=C/CC/C(C)=C/CSCC(C)[N+](=O)[O-] (stereo not drawn) [3-farnesylthio-2-nitropropane]
status as conventional inhibitor (in place of Ki) ([1]; Table 1): inhibitor

Compound: CC(C)=CCC/C(C)=C/CC/C(C)=C/CSCCC(N)=O [3-farnesylthiopropionamide]
status as conventional inhibitor (in place of Ki) ([1]; Table 1): inhibitor

Compound: CC(C)=CCC/C(C)=C/CC/C(C)=C/C[S+]([O-])CC(=O)O (stereo not drawn) [2-farnesylthioacetic acid sulfoxide]
Ki [1, 10]: < 10 µM

Compound: CC(C)=CCC/C(C)=C/CC/C(C)=C/CS/C=C/C(=O)O [3-farnesylthio-trans-acrylic acid]
Ki [1, 10]: 37 µM

The next lines start with results.

substrate activity for ROS methyltransferase [1]: not a substrate
Compound: CC(=O)N[C@@H](CS)C(=O)O [N-acetylcysteine, reference compound]

inhibition of methyltransferase activity towards AFC [1]: inhibited | inhibition of methyltransferase activity present in ROS membrane [2]: inhibited
Compound: Nc1ncnc2c1ncn2[C@@H]1O[C@H](CSCC[C@H](N)C(=O)O)[C@@H](O)[C@H]1O [SAH, reference compound]

inhibition of methyltransferase activity towards AFC [1]: inhibited | inhibition of methyltransferase activity present in ROS membrane [2]: inhibited
Compound: Nc1ncnc2c1ncn2[C@@H]1O[C@H](C[C@@H](N)CC[C@H](N)C(=O)O)[C@@H](O)[C@H]1O [sinefungin, reference compound]

status as substrate (in place of Km) ([1]; Table 1): substrate
Compound: CC(=O)N[C@@H](CSC/C=C(\C)CCC=C(C)C)C(=O)O [AGC, N-acetyl-S-geranyl-L-cysteine]
substrate activity for ROS methyltransferase [1]: exceedingly weak substrate; also recorded: marginal activity

Km [1, 9]: 42 µM
Compound: CC(=O)N[C@H](CSC/C=C(\C)CC/C=C(\C)CCC=C(C)C)C(=O)O [N-acetyl-S-farnesyl-D-cysteine]

Km ([1]; AFC system, ROS membranes, read-out: apparent KM): 2 µM
Compound: C[S+](CC[C@H](N)C(=O)O)C[C@H]1O[C@@H](n2cnc3c(N)ncnc32)[C@H](O)[C@@H]1O (stereo partly drawn) [AdoMet, S-adenosyl-L-methionine, reference compound]

status as conventional inhibitor (in place of Ki) ([1]; Table 1): inhibitor
Compound: disodium 2-farnesylthioethyl phosphate

status as substrate (in place of Km) ([1]; Table 1): substrate
Compound: N-acetylgeranylgeranylcysteine

status as substrate (in place of Km) ([1]; Table 1): substrate
Compound: CC(C)=CCC/C(C)=C/CC/C(C)=C/CSC[C@H](NC(=O)c1ccccc1)C(=O)O [N-benzoyl-S-farnesylcysteine]

Km [1, 8]: 13.7 µM | Km [1, 9]: 14 µM
Compound: CC(C)=CCC/C(C)=C/CC/C(C)=C/CSCCC(=O)O [FTP, 3-farnesylthiopropionic acid]
substrate activity for ROS methyltransferase [1]: active substrate; also recorded: also a substrate | inhibition of proliferation of HL-60 cells [3]: can inhibit proliferation
